According to paper PMC6805442, “Discovery of low-molecular weight anti-PD-L1 peptides for cancer immunotherapy” (Journal for Immunotherapy of Cancer, 2019):
Like-named read-outs stand apart in the source and are kept apart here. No end group written: not given here.

Experiments:
[1] = biological target: T1, recombinant human PD-L1 ECD protein (Homo sapiens, UniProt Q9NZQ7); assay: SPR binding to human PD-L1; conditions: for kon: read-out: Ka
T1 construct: the recombinant human PD-L1 ECD protein were evaluated using SPR; purchased G&P Biosciences FCL0784B
Procedure: Binding affinities of the PD-L1 specific peptides for human PD-L1 protein were determined by SPR (BI4500, Biosensing Instrument). PD-L1 protein was diluted to 10 μg/mL with sodium acetate buffer (pH 5.0, GE Healthcare, PA) and covalently coated onto a CM5 sensor chip (CM Dextran Sensor Chip, Biosensing Instrument) using the standard Amine Coupling Kit (GE Healthcare, PA). Approximately 6500 RU of PD-L1 protein were immobilized onto the chip. A second channel was used as a reference. HBS-EP+ buffer (GE Healthcare) was employed at a flow rate of 60 μL/min. A series of concentrations of each peptide (15, 30, 60, 125, 250, 500, 1000, 5000 and 10,000 nM) were prepared in HBS-EP+ running buffer to obtain the equilibrium dissociation constant (KD) values of the peptides. The CM5 sensor chip was regenerated with 10 mM NaOH for 20 s. The results were analyzed using the software of Bi data analysis software.
Binding affinities of the discovered peptides against the recombinant human PD-L1 ECD protein were evaluated using SPR. The PD-L1 protein was immobilized on a CM5 golden chip by the direct amine coupling method. […] Even though the binding affinity of peptides are generally lower than that of antibodies, the very high affinity of antibodies may result in on-target, off-tumor toxicity in healthy tissues that express low levels of PD-L1. In a recent study, scientists constructed several chimeric antigen receptor (CAR) T cells with different affinities to ICAM-1. […] CAR-T cells with nanomolar affinity lyse healthy cells that express a low level of ICAM-1. By contrast, CAR-T cells with micromolar affinity only attack tumor cells with high levels of ICAM-1 but not healthy cells with low levels of ICAM-1, leading to less toxicity.

[2] = biological target: T2, human PD-1/PD-L1 interaction (hPD-L1 protein) (Homo sapiens, UniProt Q9NZQ7); assay: Blockade of the human PD-1/PD-L1 interaction, plate coated with human PD-L1 protein; type: biochemical; conditions: for Block Efficiency: hPD-L1 protein, blocking profile (Fig. 2d, e)
T2 construct: G&P Biosciences, human PD-L1 ECD, cat# FCL0784B; purchased G&P Biosciences FCL0784B (PD-L1)
Procedure: (§1) Ninety-six-well plates were coated with 100 ng of PD-L1 protein (G&P Biosciences, human PD-L1 ECD, cat# FCL0784B. mouse PD-L1, cat# FCL3502B) and later blocked with 2% BSA for 2 h at room temperature. Various concentrations of peptides were loaded into the wells and incubated for 1 h at room temperature. […] Streptavidin-HRP (R&D systems) and chromogenic substrate were added into the wells. OD450 was then recorded and referenced to OD540.
(§2) We next examined the blocking efficiency of the anti-PD-L1 peptides at 10 μM (Fig. 2c). […] We also determined IC50 of each peptide using recombinant human PD-L1 protein and DU-145 cancer cells.

[3] = biological target: T3, PD-1/PD-L1 interaction on DU-145 cells (Homo sapiens, UniProt Q9NZQ7); assay: Blockade of the PD-1/PD-L1 interaction, plate coated with DU-145 cells; type: cell-based; conditions: for Block Efficiency: DU145 cancer cells, blocking profile (Fig. 2d, f)
T3 construct: when the plate was coated with DU-145 cells; endogenous in cells; host or cells: DU-145
Procedure: as §1, §2

[4] = biological target: T4, mouse PD-1/PD-L1 interaction (mPD-L1 protein) (Mus musculus, UniProt Q9EP73); assay: Blockade of the mouse PD-1/PD-L1 interaction, mouse PD-L1 protein; type: biochemical; conditions: for Block Efficiency: mPD-L1 protein, blocking profile (Fig. 2h, i)
T4 construct: purchased G&P Biosciences FCL3502B (PD-L1)
Procedure: as §1
By contrast, the blocking efficiency of the anti-mouse PD-L1 antibody was 92%.

[5] = biological target: T5, PD-1/PD-L1 interaction on mouse cancer cell line 4 T1 (Mus musculus, UniProt Q9EP73); assay: Blockade of the PD-1/PD-L1 interaction on 4T1 cells; type: cell-based; conditions: for Block Efficiency: blocking profile (Fig. 2h, j)
T5 construct: endogenous in cells; host or cells: 4T1

[6] = biological target: human PD-L1/CD80 interaction (Homo sapiens, UniProt Q9NZQ7); assay: Blockade of the CD80/PD-L1 interaction; type: biochemical; conditions: for blocking efficiency, CD80/PD-L1: 10 μM
From the text: The CD80/PD-L1 interaction specifically restrains T cell activation, and blockade of the interaction could enhance the anti-tumor activity of the T cells. […] We, therefore, investigated whether the anti-PD-L1 peptides block the CD80/PD-L1 interaction.
Supplementary file 40425_2019_705_MOESM1_ESM.png: Additional file 1: Figure S1. Blockade of the PD-L1/CD80 interaction by anti-PD-L1 peptides and antibody. […] IC50 and blocking efficiency of CLP002 (b) and CLP003 (c) against the human PD-L1/CD80 interaction. Results are represented as the mean ± SD (n = 3).

T4 sequence (Q9EP73 19-239 limits assumed): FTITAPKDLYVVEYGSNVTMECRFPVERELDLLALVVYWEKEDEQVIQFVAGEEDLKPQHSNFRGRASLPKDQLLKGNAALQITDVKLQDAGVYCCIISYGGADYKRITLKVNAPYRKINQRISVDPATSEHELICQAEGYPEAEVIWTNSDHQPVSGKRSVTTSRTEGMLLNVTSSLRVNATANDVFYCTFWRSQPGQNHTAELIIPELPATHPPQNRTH
T2 sequence (Q9NZQ7 19-238 limits assumed): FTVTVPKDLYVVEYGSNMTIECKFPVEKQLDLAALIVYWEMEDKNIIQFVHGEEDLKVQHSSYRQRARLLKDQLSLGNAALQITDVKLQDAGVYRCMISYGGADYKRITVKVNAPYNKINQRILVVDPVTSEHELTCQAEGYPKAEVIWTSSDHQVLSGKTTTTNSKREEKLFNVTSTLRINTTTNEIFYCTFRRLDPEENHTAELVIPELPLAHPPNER
human PD-L1/CD80 interaction, sequence (Q9NZQ7 19-238 limits assumed): as above
T1 sequence (Q9NZQ7 19-238 limits assumed): as above
T3 sequence (Q9NZQ7 19-290): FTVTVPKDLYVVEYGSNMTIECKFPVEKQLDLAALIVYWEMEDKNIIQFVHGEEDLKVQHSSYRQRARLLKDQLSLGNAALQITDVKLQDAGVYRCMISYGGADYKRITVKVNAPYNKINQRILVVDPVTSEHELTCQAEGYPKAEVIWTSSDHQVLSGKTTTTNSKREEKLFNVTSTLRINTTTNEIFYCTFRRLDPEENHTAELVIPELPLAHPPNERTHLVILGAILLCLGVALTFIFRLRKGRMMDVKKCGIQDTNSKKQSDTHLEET
T5 sequence (Q9EP73 19-290): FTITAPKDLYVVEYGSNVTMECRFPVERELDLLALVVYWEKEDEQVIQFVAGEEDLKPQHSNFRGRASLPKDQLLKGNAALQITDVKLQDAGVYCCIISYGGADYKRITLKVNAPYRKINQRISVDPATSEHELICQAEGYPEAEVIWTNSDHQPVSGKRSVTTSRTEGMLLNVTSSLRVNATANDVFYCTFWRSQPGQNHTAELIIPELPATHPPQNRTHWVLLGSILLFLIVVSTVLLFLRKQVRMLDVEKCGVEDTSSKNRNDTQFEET

Row | Sequence | Kd ([1]; SPR, human PD-L1 immobilized on CM5 chip (~6500 RU), HBS-EP+, 60 μL/min, peptide 15-10,000 nM, mean ± SD (n = 3)) [nM] | kon [1] [M⁻¹ s⁻¹] | IC50 [2] [nM] | Block Efficiency [2] [%] | IC50 [3] [nM] | Block Efficiency [3] [%] | IC50 [4] [nM] | blocking efficiency ([4]; 10 μM, mouse PD-L1 protein (Fig. 2g)) [%] | Block Efficiency [4] [%] | IC50 [5] [nM] | Block Efficiency ([5]; 4T1 cancer cells) [%] | IC50 [6] [nM] | blocking efficiency, CD80/PD-L1 [6] | IC50 ([3]; DU145 cancer cells coated on the plate) [nM] | IC50 ([5]; 4T1 cancer cells) [nM]
1 | WHRSYYTWNLNT [CLP002] | 366 | 4520 ± 666 | 2170 | 85 | 1430 | 80 | 1910 | 71 | 68 | 2440 | 61 | 2450 | ~48% |  | 
2 | DYHDPSLPTLRK [CLP004] |  | 5140 ± 390 |  | 52 |  | 60 |  |  | 48 |  | 34 |  | ~27% | 200 | 730
3 | WHFSYNWRWLPP [CLP003] |  | 22600 |  |  |  |  |  |  |  |  |  |  |  |  | 
4 | HYPFRPHANQAS [CLP001] |  | 5190 ± 212 |  | 0 |  | 0 |  |  | 34 |  | 35 |  | approximately 17% |  | 910
